In the NIST ThermoML archive (doi:10.1021/je034203p) one finds viscosity and mass density data, which are given here for 27 molecules.

± gives the expanded uncertainty stated by the source.

The series can be described thus: xn = mol fraction of the nth substance listed. The note with it: 298.15 K, 101.3 kPa, Liquid; for viscosity: Capillary tube (Ostwald / Ubbelohde) method.

For `CC(C)=O` [acetone] + ClC(Cl)=C(Cl)Cl, for the setting “x2 = 0”, the viscosity worked out at 0.3121 ± 0.0066 mPa·s and the mass density turned out to be 780.8 ± 0.7 kg/m3.
In the case of `CC(C)=O` [acetone] + ClC=C(Cl)Cl, where the note is “x2 = 0”, the viscosity is 0.3121 ± 0.0066 mPa·s and the mass density was determined as 780.8 ± 0.7 kg/m3.
Regarding `c1ccccc1` [benzene] + ClC(Cl)=C(Cl)Cl, under “x2 = 0”, the viscosity was found to be 0.608 ± 0.0078 mPa·s and the mass density is given as 869.7 ± 0.6 kg/m3.
`c1ccccc1` [benzene] + ClC=C(Cl)Cl: for the setting “x2 = 0”, the viscosity was 0.608 ± 0.0078 mPa·s and the mass density is listed as 869.7 ± 0.6 kg/m3.
The matching figures for `CCCCO` [butan-1-ol] + ClC(Cl)=C(Cl)Cl: 2.538 ± 0.023 mPa·s and 806.3 ± 0.7 kg/m3.
The matching figures for `CCCCO` [butan-1-ol] + ClC=C(Cl)Cl: 2.538 ± 0.023 mPa·s and 806.3 ± 0.7 kg/m3.
Taken in the same sequence, the figures for `CCC(C)O` (centres undefined) [butan-2-ol] + ClC(Cl)=C(Cl)Cl were 3.103 ± 0.028 mPa·s and 804.8 ± 0.7 kg/m3.
For `CCC(C)O` (centres undefined) [butan-2-ol] + ClC=C(Cl)Cl, under “x2 = 0”, the viscosity came out at 3.103 ± 0.028 mPa·s and the mass density is recorded as 804.8 ± 0.7 kg/m3.
The matching figures for `CCC(C)=O` [butanone] + ClC(Cl)=C(Cl)Cl: 0.4011 ± 0.0069 mPa·s and 797.4 ± 0.7 kg/m3.
`CCC(C)=O` [butanone] + ClC=C(Cl)Cl: where the note is “x2 = 0”, the viscosity worked out at 0.4011 ± 0.0069 mPa·s and the mass density was determined as 797.4 ± 0.7 kg/m3.
The matching figures for `CCO` [ethanol] + ClC(Cl)=C(Cl)Cl: 1.112 ± 0.011 mPa·s and 787.4 ± 0.7 kg/m3.
With `CCO` [ethanol] + ClC=C(Cl)Cl, where the note is “x2 = 0”, the viscosity was 1.112 ± 0.011 mPa·s and the mass density worked out at 787.4 ± 0.7 kg/m3.
Consider `CCOC(C)=O` [ethyl acetate] + ClC(Cl)=C(Cl)Cl, for which, under “x2 = 0”, the viscosity was found to be 0.4274 ± 0.007 mPa·s and the mass density stood at 894 ± 0.6 kg/m3.
On to `CCOC(C)=O` [ethyl acetate] + ClC=C(Cl)Cl, for which, where the note is “x2 = 0”, the viscosity is 0.4274 ± 0.007 mPa·s and the mass density worked out at 894 ± 0.6 kg/m3.
Consider `CO` [methanol] + ClC(Cl)=C(Cl)Cl, for which, under “x2 = 0”, the viscosity is listed as 0.5482 ± 0.0075 mPa·s and the mass density was determined as 788.1 ± 0.7 kg/m3.
With `CO` [methanol] + ClC=C(Cl)Cl, under “x2 = 0”, the viscosity was 0.5482 ± 0.0075 mPa·s and the mass density is 788.1 ± 0.7 kg/m3.
Taken in the same sequence, the figures for `COC(C)=O` [methyl ethanoate] + ClC(Cl)=C(Cl)Cl were 0.3711 ± 0.0068 mPa·s and 923.9 ± 0.6 kg/m3.
With `COC(C)=O` [methyl ethanoate] + ClC=C(Cl)Cl, for the setting “x2 = 0”, the viscosity is given as 0.3711 ± 0.0068 mPa·s and the mass density was 923.9 ± 0.6 kg/m3.
On to `CCCO` [propan-1-ol] + ClC(Cl)=C(Cl)Cl, for which, for the setting “x2 = 0”, the viscosity was 1.954 ± 0.017 mPa·s and the mass density stood at 800 ± 0.7 kg/m3.
For `CCCO` [propan-1-ol] + ClC=C(Cl)Cl, for the setting “x2 = 0”, the viscosity is reported as 1.954 ± 0.017 mPa·s and the mass density is on record as 800 ± 0.7 kg/m3.
Take `CC(C)O` [propan-2-ol] + ClC(Cl)=C(Cl)Cl: where the note is “x2 = 0”, the viscosity is 2.044 ± 0.018 mPa·s and the mass density came out at 784.3 ± 0.7 kg/m3.
In the case of `CC(C)O` [propan-2-ol] + ClC=C(Cl)Cl, where the note is “x2 = 0”, the viscosity turned out to be 2.044 ± 0.018 mPa·s and the mass density was 784.3 ± 0.7 kg/m3.
With `ClC(Cl)=C(Cl)Cl` [tetrachloroethene] + CC(C)=O, the viscosity reads like this: (x1 = 0.0742) 0.3537 ± 0.0067 mPa·s; (x1 = 0.1529) 0.398 ± 0.0069 mPa·s; (x1 = 0.2362) 0.4442 ± 0.0071 mPa·s; (x1 = 0.3247) 0.4942 ± 0.0073 mPa·s; (x1 = 0.4192) 0.5459 ± 0.0075 mPa·s; (x1 = 0.5201) 0.6021 ± 0.0078 mPa·s. Further, the viscosity is listed as 0.6581 ± 0.0081 mPa·s (x1 = 0.6279), 0.7167 ± 0.0084 mPa·s (x1 = 0.7428), 0.7802 ± 0.0087 mPa·s (x1 = 0.8671) and 0.8474 ± 0.0091 mPa·s (x1 = 1). In addition, the mass density is, setting by setting: (x1 = 0.0742) 862.2 ± 0.6 kg/m3; (x1 = 0.1529) 943.8 ± 0.6 kg/m3; (x1 = 0.2362) 1025.5 ± 0.6 kg/m3; (x1 = 0.3247) 1107.7 ± 0.7 kg/m3; (x1 = 0.4192) 1189.6 ± 0.9 kg/m3; (x1 = 0.5201) 1272.3 ± 1 kg/m3. In addition, the mass density came out at 1356.2 ± 1.2 kg/m3 (x1 = 0.6279), 1440.3 ± 1.3 kg/m3 (x1 = 0.7428), 1524.6 ± 1.4 kg/m3 (x1 = 0.8671) and 1610.2 ± 1.6 kg/m3 (x1 = 1).
For the molecule `ClC(Cl)=C(Cl)Cl` [tetrachloroethene] + CC(C)O, the viscosity reads like this: (x1 = 0.0763) 1.855 ± 0.017 mPa·s; (x1 = 0.1567) 1.676 ± 0.015 mPa·s; (x1 = 0.2417) 1.51 ± 0.014 mPa·s; (x1 = 0.3313) 1.364 ± 0.013 mPa·s; (x1 = 0.4266) 1.236 ± 0.012 mPa·s; (x1 = 0.5276) 1.123 ± 0.011 mPa·s. Also, the viscosity is, setting by setting: (x1 = 0.6349) 1.025 ± 0.01 mPa·s; (x1 = 0.7486) 0.9401 ± 0.0097 mPa·s; (x1 = 0.8705) 0.8824 ± 0.0093 mPa·s; (x1 = 1) 0.8474 ± 0.0091 mPa·s. The mass density was determined as 864.9 ± 0.6 kg/m3 (x1 = 0.0763); 946.4 ± 0.6 kg/m3 (x1 = 0.1567); 1026.7 ± 0.6 kg/m3 (x1 = 0.2417); 1107.5 ± 0.7 kg/m3 (x1 = 0.3313); 1189.3 ± 0.9 kg/m3 (x1 = 0.4266); 1271.6 ± 1 kg/m3 (x1 = 0.5276). Besides, the mass density is, setting by setting: (x1 = 0.6349) 1355.4 ± 1.2 kg/m3; (x1 = 0.7486) 1437.6 ± 1.3 kg/m3; (x1 = 0.8705) 1523.6 ± 1.4 kg/m3; (x1 = 1) 1610.2 ± 1.6 kg/m3.
On to `ClC(Cl)=C(Cl)Cl` [tetrachloroethene] + CCC(C)=O, for which the viscosity by setting is: (x1 = 0.0888) 0.4563 ± 0.0071 mPa·s; (x1 = 0.1798) 0.5095 ± 0.0073 mPa·s; (x1 = 0.2732) 0.5626 ± 0.0076 mPa·s; (x1 = 0.3692) 0.6147 ± 0.0078 mPa·s; (x1 = 0.4672) 0.6642 ± 0.0081 mPa·s; (x1 = 0.5688) 0.7069 ± 0.0083 mPa·s. Besides, the viscosity by setting is: (x1 = 0.6719) 0.7447 ± 0.0085 mPa·s; (x1 = 0.7786) 0.7802 ± 0.0087 mPa·s; (x1 = 0.8873) 0.8161 ± 0.0089 mPa·s; (x1 = 1) 0.8474 ± 0.0091 mPa·s. Also, the mass density is, setting by setting: (x1 = 0.0888) 875.6 ± 0.6 kg/m3; (x1 = 0.1798) 955.1 ± 0.6 kg/m3; (x1 = 0.2732) 1034.4 ± 0.6 kg/m3; (x1 = 0.3692) 1114.1 ± 0.8 kg/m3; (x1 = 0.4672) 1193.9 ± 0.9 kg/m3; (x1 = 0.5688) 1275.5 ± 1 kg/m3. The mass density (x1 = 0.6719) came out at 1356.5 ± 1.1 kg/m3, the mass density (x1 = 0.7786) worked out at 1441.7 ± 1.3 kg/m3, the mass density (x1 = 0.8873) was found to be 1524.2 ± 1.4 kg/m3 and the mass density (x1 = 1) is reported as 1610.2 ± 1.6 kg/m3.
For `ClC(Cl)=C(Cl)Cl` [tetrachloroethene] + CCC(C)O, the viscosity reads like this: (x1 = 0.0903) 2.66 ± 0.024 mPa·s; (x1 = 0.1825) 2.28 ± 0.02 mPa·s; (x1 = 0.2769) 1.944 ± 0.017 mPa·s; (x1 = 0.3734) 1.667 ± 0.015 mPa·s; (x1 = 0.4718) 1.453 ± 0.013 mPa·s; (x1 = 0.5733) 1.262 ± 0.012 mPa·s. Moreover, the viscosity runs as follows: (x1 = 0.6759) 1.119 ± 0.011 mPa·s; (x1 = 0.7817) 1.005 ± 0.01 mPa·s; (x1 = 0.8891) 0.9029 ± 0.0094 mPa·s; (x1 = 1) 0.8474 ± 0.0091 mPa·s. Further, the mass density worked out at 883.6 ± 0.6 kg/m3 (x1 = 0.0903); 962.6 ± 0.6 kg/m3 (x1 = 0.1825); 1042.5 ± 0.6 kg/m3 (x1 = 0.2769); 1121.1 ± 0.8 kg/m3 (x1 = 0.3734); 1201.2 ± 0.9 kg/m3 (x1 = 0.4718); 1281.9 ± 1 kg/m3 (x1 = 0.5733). Besides, the mass density is reported as 1362.6 ± 1.2 kg/m3 (x1 = 0.6759), 1444.3 ± 1.3 kg/m3 (x1 = 0.7817), 1525.8 ± 1.5 kg/m3 (x1 = 0.8891) and 1610.2 ± 1.6 kg/m3 (x1 = 1).
As for `ClC(Cl)=C(Cl)Cl` [tetrachloroethene] + CCCCO, the viscosity reads like this: (x1 = 0.0901) 2.255 ± 0.02 mPa·s; (x1 = 0.1823) 1.986 ± 0.018 mPa·s; (x1 = 0.2766) 1.717 ± 0.015 mPa·s; (x1 = 0.3727) 1.496 ± 0.014 mPa·s; (x1 = 0.4713) 1.314 ± 0.012 mPa·s; (x1 = 0.5727) 1.158 ± 0.011 mPa·s. Also, the viscosity by setting is: (x1 = 0.6759) 1.045 ± 0.01 mPa·s; (x1 = 0.7809) 0.9519 ± 0.0098 mPa·s; (x1 = 0.8891) 0.8894 ± 0.0094 mPa·s; (x1 = 1) 0.8474 ± 0.0091 mPa·s. In addition, the mass density reads like this: (x1 = 0.0901) 885.2 ± 0.6 kg/m3; (x1 = 0.1823) 964.3 ± 0.6 kg/m3; (x1 = 0.2766) 1043.5 ± 0.6 kg/m3; (x1 = 0.3727) 1122.5 ± 0.8 kg/m3; (x1 = 0.4713) 1201.7 ± 0.9 kg/m3; (x1 = 0.5727) 1283 ± 1 kg/m3. In addition, the mass density is, setting by setting: (x1 = 0.6759) 1364.2 ± 1.2 kg/m3; (x1 = 0.7809) 1444.6 ± 1.3 kg/m3; (x1 = 0.8891) 1526 ± 1.5 kg/m3; (x1 = 1) 1610.2 ± 1.6 kg/m3.

In general, viscosity refers to the resistance of a fluid to flow. What is called mass density is the mass of a sample divided by its volume.
